Measured values as given in patent US20050192340A1, “Simvastatin formulations and methods of making same” (priority 2003, published 2005).

Test: In vitro hydrolysis of simvastatin formulations under simulated gastric conditions (dissolution in 0.1N HCl, HPLC)
Assay type: physicochemical
Conditions: 37° C.
Protocol: Generally, the simvastatin formulations were prepared by heating menthol to about 60° C. while stirring and adding a surface active agent (either TWEEN® or Poloxamer) and sodium ducosate or sodium lauryl sulfate. The mixture was stirred until all the components dissolved to form a melt. Thereafter, the melt was cooled to about 50° C., simvastatin was added during stirring until dissolved, the mixture was cooled to room temperature, and dispensed into capsules. After about an hour the liquid in the capsule had gelled. Each capsule was filled with enough formulation to have a dose of 20 mg of simvastatin.
Each formulation was tested by dissolution in 50 ml of 0.1N HCl at 37° C. with stirring. […] It was determined that the retention times for the simvastatin hydroxyl acid was 3.6 minutes and simvastatin lactone was 5.7 minutes.

- % hydrolyzed Simvastatin (0.1N HCl, 60 min, weight % hydrolyzed simvastatin from the initial simvastatin amount): 0%
- % converted to hydroxyl acid (0.1N HCl, 60 min, weight % of the total dissolved simvastatin in the open hydroxy acid form): 0%
- % Dissolved 60 min 0.1 N HCl (50 ml 0.1N HCl, stirring, total dissolved simvastatin (closed lactone + open hydroxy acid form), 20 mg capsule): 0%
SMILES: CCC(C)(C)C(=O)O[C@H]1C[C@@H](C)C=C2C=C[C@H](C)[C@H](CCC3C[C@@H](O)CC(=O)O3)[C@H]21 (stereo partly drawn) [Simvastatin 100%]
